Test results from patent publication US11352322B2, “Cyclopropyl-amide compounds as dual LSD1/HDAC inhibitors” (Jubilant Epicore LLC, priority 2016, dated 2022).
Structures can show the parent of a compound that is named as a salt. Where two headings read alike, the source gives them in different places.

Key:
[1] = Metabolic stability in liver microsomes, MLM; details: 1 μM, NADPH
Protocol: (§4) The microsomal suspension was prepared by adding liver microsomes to 100 mM potassium phosphate buffer (pH7.4) to give a final protein concentration of 0.5 mg/mL. The stock solution of NCE (10 mM in DMSO) was added to the microsomes to provide a final concentration of 1 μM. […] Samples were vortexed and centrifuged at 5,000 rpm for 10 min to remove proteins. Supernatant were analyzed on LC-MS/MS.

MM1S = experiment: Anticancer activity: Alamar Blue assay, MM1S; type: cell-based; details: Homo sapiens, MM1.S, read-out: MM1S EC50
[2] = molecular target: HDAC6 human recombinant enzyme (Homo sapiens (Human), UniProt Q9UBN7); experiment: Histone Deacetylase Assay (BPS Biosciences), HDAC6; type: biochemical
Text: Histone Deacetylase Assay (BPS Biosciences)
Histone deacetylase assay was done as per manufacturer's instructions.

[3] = Metabolic stability in liver microsomes, HLM; details: 1 μM, NADPH
Protocol: as §4

OCI-AML3 = experiment: cells; details: Homo sapiens, OCI-AML-3, 144 h, read-out: Anticancer profileration EC50 OCI-AML3
Protocol: (§1) Anticancer Activity: Alamar Blue Assay
(§2) Cells were seeded at 5000 cells/per well in 96-well tissue culture plate and incubated at 37° C./5% CO2. After 16-24 hours, fresh media was added to the wells. Compounds were then (1% DMSO conc.) added to the cells at 10 concentrations ranging from 10-0.0005 uM prepared in 3-fold serial dilutions. […] Alamar Blue™ reagent was added and incubated for 1-3 hours at 37° C./5% CO2. Plates were read on fluorescence reader at 540 nm excitation, 590 nm emission wave lengths.
(§3) As described above, compounds were tested for anticancer activities in different tumor cell lines and GI50 were determined.

MDAMB231 = experiment: cells; details: Homo sapiens, MDA-MB-231, 144 h, read-out: Anticancer profileration EC50 MDAMB231
Protocol: as §1, §2, §3

HEL-92.1.7 = experiment: cells; details: Homo sapiens, HEL 92.1.7, 144 h, read-out: Anticancer profileration EC50 HEL-92.1.7
Protocol: as §1, §2, §3

A375 = experiment: cells; details: Homo sapiens, A-375, 144 h, read-out: Anticancer profileration EC50 A375
Protocol: as §1, §2, §3

MV-4-11 = experiment: cells; details: Homo sapiens, MV4-11, 144 h, read-out: Anticancer profileration EC50 MV-4-11
Protocol: as §1, §2, §3

CCRF-CEM = experiment: cells; details: Homo sapiens, 144 h, read-out: Anticancer profileration EC50 CCRF-CEM
Protocol: as §1
Cells were seeded at 5000 cells/per well in 96-well tissue culture plate and incubated at 37° C./5% CO2. After 16-24 hours, fresh media was added to the wells. Compounds were then (1% DMSO conc.) added to the cells at 10 concentrations ranging from 10-0.0005 uM prepared in 3-fold serial dilutions. Cells were incubated for 68-72 h at 37° C./5% CO2. Alamar Blue™ reagent was added and incubated for 1-3 hours at 37° C./5% CO2. Plates were read on fluorescence reader at 540 nm excitation, 590 nm emission wave lengths.
as §3

LSD1 = LSD1 (Homo sapiens (Human), UniProt O60341); experiment: TR-FRET Assay for LSD1; details: read-out: LSD1 IC50
Protocol: TR-FRET Assay for LSD1 (Perkin Elmer)
Tranylcypromine (TCP), LSD1 inhibitor was procured from Selleckchem. […] Stop Solution containing 300 μM tranylcypromine in 1× LANCE Detection Buffer was added to the wells and incubated for 5 min at RT. Then, Detection mix containing 2 nM Eu-Ab and 50 nM ULight-Streptavidin in 1× LANCE Detection Buffer was prepared and added to the reaction mix. This mixture was incubated for 1 hour at room temperature.

[4] = In vivo PK studies in mice; design: species or system Male Balb/C mice; details: for C0 / Vd / Cmax / clearance / half-life / bioavailability: male, Balb/C, mouse, plasma; for clearance: read-out: Cl IV
Protocol: In Vivo PK Studies in Mice
All the animal experiments were approved by Institutional Animal Ethical Committee (IAEC/JDC/2015/72). Male Balb/C mice (n=24) were procured from Vivo Biotech, Hyderabad, India. The animals were housed in Jubilant Biosys animal house facility in a temperature (22±2° C.) and humidity (30-70%) controlled room (15 air changes/hour) with a 12:12 h light:dark cycles, had free access to rodent feed (Altromin Spezialfutter GmbH & Co. KG., Im Seelenkamp 20, D-32791, Lage, Germany) and water for one week before using for experimental purpose. Following ˜4 h fast (during the fasting period animals had free access to water) animals were divided into two groups (n=12/group). […] Post-dosing serial blood samples (100 μL, sparse sampling was done and at each time point three mice were used for blood sampling) were collected using Micropipettes (Microcaps®; catalogue number: 1-000-0500) through tail vein into polypropylene tubes containing K2.EDTA solution as an anti-coagulant at 0.25, 0.5, 1, 2, 4, 8, 10 and 24 (for oral study) and 0.12, 0.25, 0.5, 1, 2, 4, 8 and 24 (for intravenous study). Plasma was harvested by centrifuging the blood using Biofuge (Hereaus, Germany) at 1760 g for 5 min and stored frozen at −80±10° C. until analysis. Animals were allowed to access feed 2 h post-dosing.
Plasma concentration-time data of the compound was analyzed by non-compartmental method using Phoenix WinNonlin Version 6.3 (Pharsight Corporation, Mountain View, Calif.).

[5] = PO 50 mg/kg, read-out: t1/2 PO (converted)
[6] = IV 2 mg/kg, read-out: t1/2 IV (converted)

Chain of HDAC6 human recombinant enzyme (Q9UBN7 whole entry): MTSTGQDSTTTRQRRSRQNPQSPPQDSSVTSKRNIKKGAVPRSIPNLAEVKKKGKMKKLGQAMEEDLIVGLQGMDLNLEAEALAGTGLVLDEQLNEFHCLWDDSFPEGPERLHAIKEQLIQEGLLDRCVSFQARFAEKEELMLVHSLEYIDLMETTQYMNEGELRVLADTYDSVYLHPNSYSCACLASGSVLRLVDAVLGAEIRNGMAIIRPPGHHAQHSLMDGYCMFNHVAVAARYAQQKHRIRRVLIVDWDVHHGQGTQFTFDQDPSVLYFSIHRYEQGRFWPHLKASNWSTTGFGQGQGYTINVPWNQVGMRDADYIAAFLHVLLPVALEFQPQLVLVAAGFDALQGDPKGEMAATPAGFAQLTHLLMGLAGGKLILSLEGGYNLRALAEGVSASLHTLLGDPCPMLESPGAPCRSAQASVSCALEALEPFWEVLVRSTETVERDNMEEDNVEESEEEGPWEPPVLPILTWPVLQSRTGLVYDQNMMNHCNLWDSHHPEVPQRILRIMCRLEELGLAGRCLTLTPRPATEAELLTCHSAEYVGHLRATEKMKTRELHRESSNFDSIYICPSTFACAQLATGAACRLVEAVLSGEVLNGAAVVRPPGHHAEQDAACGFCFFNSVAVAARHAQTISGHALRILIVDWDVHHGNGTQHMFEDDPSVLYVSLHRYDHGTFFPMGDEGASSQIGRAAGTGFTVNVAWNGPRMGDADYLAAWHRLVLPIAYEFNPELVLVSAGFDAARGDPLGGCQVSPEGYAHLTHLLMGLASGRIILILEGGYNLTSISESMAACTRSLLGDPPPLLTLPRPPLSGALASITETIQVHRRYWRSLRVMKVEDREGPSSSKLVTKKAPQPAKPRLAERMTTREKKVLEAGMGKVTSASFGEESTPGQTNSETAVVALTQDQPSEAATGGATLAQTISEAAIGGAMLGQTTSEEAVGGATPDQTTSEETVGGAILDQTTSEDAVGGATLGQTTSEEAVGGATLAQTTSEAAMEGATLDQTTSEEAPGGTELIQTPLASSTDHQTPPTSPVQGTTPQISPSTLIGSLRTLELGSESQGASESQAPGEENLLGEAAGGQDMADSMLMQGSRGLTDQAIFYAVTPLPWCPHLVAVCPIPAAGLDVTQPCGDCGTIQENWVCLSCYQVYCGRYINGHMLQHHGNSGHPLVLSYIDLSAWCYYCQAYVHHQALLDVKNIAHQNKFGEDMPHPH

Row | EC50 (MM1S; MM1S cells) [nM] | SMILES | Metabolic stability MLM % remaining in 30 min [1] [%] | EC50 (MM1S) [nM] | IC50 [2] [nM] | Metabolic stability HLM % remaining in 30 min [3] [%] | EC50 (OCI-AML3) [nM] | EC50 (MDAMB231) [nM] | EC50 (HEL-92.1.7) [nM] | EC50 (A375) [nM] | EC50 (MV-4-11) [nM] | EC50 (CCRF-CEM) [nM] | IC50 (LSD1) [nM] | further results
1 |  | O=C(NO)c1cnc(N2CCC(CNC3CC3c3ccc(F)cc3)CC2)nc1 (centres unmarked) [Example 8, 2-(4-(((2-(4-fluorophenyl)cyclopropyl)amino)methyl)piperidin-1-yl)-N-hydroxypyrimidine-5-carboxamide TFA Salt] | 52 | 7 | 88 | 88 | 46 | 193 | 42 | 698 | 48 | 119 |  | 
2 |  | O=C(NO)c1cnc(N2CCC(NC3CC3c3ccc(OCc4ccc(F)cc4)cc3)CC2)nc1 (centres unmarked) [Example 12, 2-(4-((2-(4-((4-fluorobenzyl)oxy)phenyl)cyclopropyl)amino)piperidin-1-yl)-N-hydroxypyrimidine-5-carboxamide TFA Salt] | 85 | 11 |  | 95 | 41 | 1300 | 4 | 2800 | 9 | 375 |  | 
3 |  | O=C(NO)c1ccc(CCCN2CCC(CNC3CC3c3ccccc3)CC2)cc1 (centres unmarked) [Example 43, N-hydroxy-4-(3-(4-(((2-phenylcyclopropyl)amino)methyl)piperidin-1-yl)propyl)benzamide TFA Salt] | 56 |  |  | 40 | 115 | 747 | 1 | 1030 | 2 | 493 |  | 
4 |  | COc1ccc(C2CC2NCC2CCN(CCCc3ccc(C(=O)NO)cc3)CC2)cc1 (centres unmarked) [Example 51, N-hydroxy-4-(3-(4-(((2-(4-methoxyphenyl)cyclopropyl)amino)methyl)piperidin-1-yl)propyl)benzamide TFA Salt] | 91 |  | 38 | 74 | 14 |  | 3 |  | 31 |  | 6 | 
5 |  | O=C(NO)c1ccc(CCCN2CCC(CNC3CC3c3ccc(-c4ccc(Cl)cc4)cc3)CC2)cc1 (centres unmarked) [Example 56, 4-(3-(4-(((2-(4′-chloro-[1,1′-biphenyl]-4-yl)cyclopropyl)amino)methyl)piperidin-1-yl)propyl)-N-hydroxybenzamide TFA Salt] | 75 |  | 19 | 87 | 10 |  | 10 |  | 7 |  | 2 | 
6 | 49 | O=C(NO)c1ccc(CCCN2CCC(CNC3CC3c3ccc(-c4cncnc4)cc3)CC2)cc1 (centres unmarked) [Example 61, N-hydroxy-4-(3-(4-(((2-(4-(pyrimidin-5-yl)phenyl)cyclopropyl)amino)methyl)piperidin-1-yl)propyl)benzamide TFA Salt] | 66 |  | 121 | 77 |  |  |  |  |  |  | 12 | AUC IV ([4]; IV 10 mg/kg): 1287 ng/mL/h; AUC PO ([4]; PO 50 mg/kg): 1920 ng/mL/h; C0 ([4]; IV 10 mg/kg): 5340 ng/mL; Vd ([4]; IV 10 mg/kg): 30 L/kg; Cmax ([4]; IV 10 mg/kg, read-out: CMax IV): 2760 ng/mL; clearance ([4]; IV 10 mg/kg): 125 mL/min/kg; half-life ([4]; IV 10 mg/kg, read-out: t1/2 IV (converted)): 2.8 h; Cmax ([4]; PO 50 mg/kg, read-out: CMax PO): 771 ng/mL; half-life [4, 5]: 1.48 h; bioavailability ([4]; dose IV/PO 10/50 mg/kg): 30%
7 |  | COc1ccc(C2CC2NCc2cn3c(n2)CN(CCCc2ccc(C(=O)NO)cc2)CC3)cc1 (centres unmarked) [Example 71, N-hydroxy-4-(3-(2-(((2-(4-methoxyphenyl)cyclopropyl)amino)methyl)-5,6-dihydroimidazo[1,2-a]pyrazin-7(8H)-yl)propyl)benzamide TFA Salt] | < 5 |  | 28 | 73 | 732 |  | 6050 |  | 990 |  | 1100 | 
8 |  | O=C(NO)c1ccc(CCCN2CCn3cc(CNC4CC4c4ccc(F)cc4)nc3C2)cc1 (centres unmarked) [Example 72, 4-(3-(2-(((2-(4-fluorophenyl)cyclopropyl)amino)methyl)-5,6-dihydroimidazo[1,2-a]pyrazin-7(8H)-yl)propyl)-N-hydroxybenzamide TFA Salt] | < 5 | 343 | 18 | 67 | 573 |  | 4800 |  | 978 |  | 730 | 
9 | 77 | O=C(NO)c1ccc(/C=C/C(=O)N2CCC(CN[C@@H]3C[C@H]3c3ccc(F)cc3)CC2)cc1 [Example 115A, 4-((E)-3-(4-((((1R,2S)-2-(4-fluorophenyl)cyclopropyl)amino)methyl)piperidin-1-yl)-3-oxoprop-1-en-1-yl)-N-hydroxybenzamide TFA Salt] | 90 |  | 50 | 59 |  |  |  |  |  |  | 225 | AUC IV ([4]; IV 2 mg/kg): 301 ng/mL/h; AUC PO ([4]; PO 10 mg/kg): 638 ng/mL/h; C0 ([4]; IV 2 mg/kg): 452 ng/mL; Vd ([4]; IV 2 mg/kg): 8 L/kg; Cmax ([4]; IV 2 mg/kg, read-out: CMax IV): 452 ng/mL; clearance ([4]; IV 2 mg/kg): 108 mL/min/kg; half-life [4, 6]: 0.87 h; Cmax ([4]; PO 10 mg/kg, read-out: CMax PO): 354 ng/mL; half-life ([4]; PO 10 mg/kg, read-out: t1/2 PO (converted)): 2.78 h; bioavailability ([4]; dose IV/PO 2/10 mg/kg): 43%
10 | 120 | Cn1cc(-c2ccc(C3CC3NCC3CCN(Cc4ccc(C(=O)Nc5ccccc5N)cc4)CC3)cc2)cn1 (centres unmarked) [Example 142, N-(2-aminophenyl)-4-((4-(((2-(4-(1-methyl-1H-pyrazol-4-yl)phenyl)cyclopropyl)amino)methyl)piperidin-1-yl)methyl)benzamide TFA Salt] | 52 |  | > 10000 | 72 |  |  |  |  |  |  | 12 | AUC IV ([4]; IV 2 mg/kg): 357 ng/mL/h; AUC PO ([4]; PO 50 mg/kg): 3217 ng/mL/h; C0 ([4]; IV 2 mg/kg): 198 ng/mL; Vd ([4]; IV 2 mg/kg): 25 L/kg; Cmax ([4]; IV 2 mg/kg, read-out: CMax IV): 150 ng/mL; clearance ([4]; IV 2 mg/kg): 88 mL/min/kg; half-life [4, 6]: 12.6 h; Cmax ([4]; PO 50 mg/kg, read-out: CMax PO): 555 ng/mL; half-life [4, 5]: 6.7 h; bioavailability ([4]; dose IV/PO 2/50 mg/kg): 36%
